ChEMBL document CHEMBL3813593, “Design, synthesis and biological evaluation of 4-aminopyrimidine-5-cabaldehyde oximes as dual inhibitors of c-Met and VEGFR-2” (Bioorg Med Chem, 2016)

What was measured:
[1] = Lipophilicity, log P of compound by shake flask method; assay type: physicochemical; conditions: octanol/water
cells = conditions: Mus musculus, BaF3, 72 h
HUVEC = experiment: Antiproliferative activity against recombinant human VEGF-stimulated HUVEC after 120 hrs by CCK8 assay; assay type: functional, cell-based
[2] = biological target: T1, Vascular endothelial growth factor receptor 2 (Homo sapiens, UniProt P35968); experiment: Inhibition of VEGFR2 (unknown origin)
[3] = biological target: T1, Vascular endothelial growth factor receptor 2; experiment: Inhibition of recombinant VEGFR2 (unknown origin) using poly (Glu, Tyr) 4:1 as substrate incubated for 60 mins by ELISA
[4] = biological target: Hepatocyte growth factor receptor (Homo sapiens, UniProt P08581); experiment: Inhibition of recombinant c-Met (unknown origin) using poly (Glu, Tyr) 4:1 as substrate incubated for 60 mins by ELISA
Sequence of Hepatocyte growth factor receptor (P08581 whole entry): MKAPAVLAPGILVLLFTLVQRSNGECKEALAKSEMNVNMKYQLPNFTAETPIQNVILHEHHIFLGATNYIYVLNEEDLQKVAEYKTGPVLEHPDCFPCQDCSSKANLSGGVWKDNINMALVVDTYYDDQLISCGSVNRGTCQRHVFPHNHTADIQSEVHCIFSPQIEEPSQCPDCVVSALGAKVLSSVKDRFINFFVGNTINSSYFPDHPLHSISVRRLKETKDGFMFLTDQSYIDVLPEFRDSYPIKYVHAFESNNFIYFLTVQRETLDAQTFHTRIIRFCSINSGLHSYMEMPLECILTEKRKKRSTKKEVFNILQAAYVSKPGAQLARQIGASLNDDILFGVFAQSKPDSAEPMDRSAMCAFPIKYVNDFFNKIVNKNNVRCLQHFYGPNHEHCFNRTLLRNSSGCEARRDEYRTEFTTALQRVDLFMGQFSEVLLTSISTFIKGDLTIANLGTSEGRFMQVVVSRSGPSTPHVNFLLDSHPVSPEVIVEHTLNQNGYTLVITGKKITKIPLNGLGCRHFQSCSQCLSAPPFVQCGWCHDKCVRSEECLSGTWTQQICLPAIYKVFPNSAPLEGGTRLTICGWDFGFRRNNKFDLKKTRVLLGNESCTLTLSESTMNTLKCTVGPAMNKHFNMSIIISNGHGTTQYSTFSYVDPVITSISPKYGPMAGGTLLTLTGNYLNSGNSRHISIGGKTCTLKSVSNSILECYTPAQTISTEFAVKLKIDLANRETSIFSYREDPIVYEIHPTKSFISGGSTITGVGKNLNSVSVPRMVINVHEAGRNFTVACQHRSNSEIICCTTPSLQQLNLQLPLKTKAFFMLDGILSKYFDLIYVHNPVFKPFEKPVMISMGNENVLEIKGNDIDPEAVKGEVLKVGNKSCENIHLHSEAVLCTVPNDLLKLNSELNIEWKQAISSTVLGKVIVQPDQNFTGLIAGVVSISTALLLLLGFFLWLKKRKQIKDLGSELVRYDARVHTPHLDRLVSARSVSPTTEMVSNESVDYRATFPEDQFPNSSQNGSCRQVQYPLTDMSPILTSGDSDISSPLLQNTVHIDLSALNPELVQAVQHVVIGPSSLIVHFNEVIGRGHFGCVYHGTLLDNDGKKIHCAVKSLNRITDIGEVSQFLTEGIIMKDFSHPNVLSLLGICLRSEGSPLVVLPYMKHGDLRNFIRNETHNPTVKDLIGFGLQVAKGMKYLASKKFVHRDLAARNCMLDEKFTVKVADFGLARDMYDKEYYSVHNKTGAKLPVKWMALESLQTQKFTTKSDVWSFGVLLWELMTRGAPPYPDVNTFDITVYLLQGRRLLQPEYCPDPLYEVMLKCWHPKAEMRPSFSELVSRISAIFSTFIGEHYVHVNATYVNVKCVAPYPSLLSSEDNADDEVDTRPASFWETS

T1 sequence (P35968 whole entry): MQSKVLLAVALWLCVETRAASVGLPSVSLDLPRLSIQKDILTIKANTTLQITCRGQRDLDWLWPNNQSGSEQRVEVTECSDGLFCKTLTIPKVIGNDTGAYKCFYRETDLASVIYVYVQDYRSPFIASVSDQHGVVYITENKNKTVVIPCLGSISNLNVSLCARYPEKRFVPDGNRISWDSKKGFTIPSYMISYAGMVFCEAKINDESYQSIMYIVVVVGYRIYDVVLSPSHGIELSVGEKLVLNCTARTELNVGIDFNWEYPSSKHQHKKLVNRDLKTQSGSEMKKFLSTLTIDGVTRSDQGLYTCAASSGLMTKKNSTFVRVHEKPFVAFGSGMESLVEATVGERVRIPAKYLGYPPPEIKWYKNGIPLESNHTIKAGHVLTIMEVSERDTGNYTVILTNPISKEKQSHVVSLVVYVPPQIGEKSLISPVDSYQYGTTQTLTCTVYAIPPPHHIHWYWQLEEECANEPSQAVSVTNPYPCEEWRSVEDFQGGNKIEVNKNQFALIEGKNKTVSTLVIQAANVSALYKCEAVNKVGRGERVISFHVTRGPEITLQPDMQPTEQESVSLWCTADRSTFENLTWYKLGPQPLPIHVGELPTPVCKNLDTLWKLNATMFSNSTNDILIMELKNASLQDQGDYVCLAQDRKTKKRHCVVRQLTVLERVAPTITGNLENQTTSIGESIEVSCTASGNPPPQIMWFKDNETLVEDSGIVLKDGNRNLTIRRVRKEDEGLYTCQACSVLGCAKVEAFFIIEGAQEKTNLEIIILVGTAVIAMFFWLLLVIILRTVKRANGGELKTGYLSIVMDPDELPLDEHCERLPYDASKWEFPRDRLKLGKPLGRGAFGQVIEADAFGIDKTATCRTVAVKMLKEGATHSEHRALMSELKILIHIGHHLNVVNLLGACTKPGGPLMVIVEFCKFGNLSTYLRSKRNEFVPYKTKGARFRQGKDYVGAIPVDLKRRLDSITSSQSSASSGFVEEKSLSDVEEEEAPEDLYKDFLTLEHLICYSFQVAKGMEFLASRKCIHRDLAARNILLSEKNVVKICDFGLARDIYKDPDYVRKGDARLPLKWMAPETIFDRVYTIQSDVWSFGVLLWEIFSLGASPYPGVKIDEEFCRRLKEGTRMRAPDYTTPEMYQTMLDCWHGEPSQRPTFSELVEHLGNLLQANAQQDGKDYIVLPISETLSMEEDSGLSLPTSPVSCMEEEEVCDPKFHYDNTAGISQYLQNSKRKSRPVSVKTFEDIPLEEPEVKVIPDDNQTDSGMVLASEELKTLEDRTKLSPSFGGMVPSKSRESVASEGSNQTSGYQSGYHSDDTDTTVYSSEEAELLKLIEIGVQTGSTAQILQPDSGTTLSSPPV

logP ([1]; read-out: logP) | IC50 (cells) | SMILES | IC50 (HUVEC) | further results
2.1 | 397 nM | Nc1ncnc(Oc2ccc(NC(=O)C3(C(=O)Nc4ccc(F)cc4)CC3)cc2F)c1/C=N/OCC(=O)N1CCOCC1 |  | 
3.15 | > 1000 nM | CCOC(=O)CO/N=C/c1c(N)ncnc1Oc1ccc(NC(=O)C2(C(=O)Nc3ccc(F)cc3)CC2)cc1F |  | 
 |  | COc1cc2nccc(Oc3ccc(NC(=O)C4(C(=O)Nc5ccc(F)cc5)CC4)cc3)c2cc1OC [CABOZANTINIB] |  | logP [1]: 4.28
4.2 | 626 nM | CCCCO/N=C/c1c(N)ncnc1Oc1ccc(NC(=O)C2(C(=O)Nc3ccc(F)cc3)CC2)cc1F |  | 
4.28 |  | COc1cc2c(Oc3ccc(NC(=O)C4(C(=O)Nc5ccc(F)cc5)CC4)cc3F)ccnc2cc1OCCCN1CCOCC1 [FORETINIB] |  | 
2.67 | 110 nM | Nc1ncnc(Oc2ccc(NC(=O)C3(C(=O)Nc4ccc(F)cc4)CC3)cc2F)c1/C=N/OCCCO | 210 nM | 
4.69 | 879 nM | Nc1ncnc(Oc2ccc(NC(=O)C3(C(=O)Nc4ccc(F)cc4)CC3)cc2F)c1/C=N/OC1CCCCC1 |  | 
2.02 | 158 nM | Nc1ncnc(Oc2ccc(NC(=O)C3(C(=O)Nc4ccc(F)cc4)CC3)cc2F)c1/C=N/OCC(O)CN1CCOCC1 (centres undefined) | 720 nM | 
2.25 | 765 nM | N/N=C/c1c(N)ncnc1Oc1ccc(NC(=O)C2(C(=O)Nc3ccc(F)cc3)CC2)cc1F |  | 
4.27 | 745 nM | Nc1ncnc(Oc2ccc(NC(=O)C3(C(=O)Nc4ccc(F)cc4)CC3)cc2F)c1/C=N/OC1CCCC1 |  | 
3.65 | 619 nM | C=CCO/N=C/c1c(N)ncnc1Oc1ccc(NC(=O)C2(C(=O)Nc3ccc(F)cc3)CC2)cc1F |  | 
2.37 | 200 nM | Nc1ncnc(Oc2ccc(NC(=O)C3(C(=O)Nc4ccc(F)cc4)CC3)cc2F)c1/C=N/OCCO |  | 
2.98 | 186 nM | Nc1ncnc(Oc2ccc(NC(=O)C3(C(=O)Nc4ccc(F)cc4)CC3)cc2F)c1/C=N/OCCCN1CCOCC1 | 427 nM | 
2.75 | 258 nM | CC(O)CO/N=C/c1c(N)ncnc1Oc1ccc(NC(=O)C2(C(=O)Nc3ccc(F)cc3)CC2)cc1F (centres undefined) |  | 
3.5 | 162 nM | Nc1ncnc(Oc2ccc(NC(=O)C3(C(=O)Nc4ccc(F)cc4)CC3)cc2F)c1/C=N/OCCN1CCCC1 | 168 nM | 
3.34 | 521 nM | C#CCO/N=C/c1c(N)ncnc1Oc1ccc(NC(=O)C2(C(=O)Nc3ccc(F)cc3)CC2)cc1F |  | 
3.41 | 215 nM | CCO/N=C/c1c(N)ncnc1Oc1ccc(NC(=O)C2(C(=O)Nc3ccc(F)cc3)CC2)cc1F |  | 
3.82 | 119 nM | Nc1ncnc(Oc2ccc(NC(=O)C3(C(=O)Nc4ccc(F)cc4)CC3)cc2F)c1/C=N/OCCCN1CCCC1 | 219 nM | 
3.18 | 243 nM | COCCCO/N=C/c1c(N)ncnc1Oc1ccc(NC(=O)C2(C(=O)Nc3ccc(F)cc3)CC2)cc1F |  | 
 |  | CO/N=C/c1c(N)ncnc1Oc1ccc2[nH]ccc2c1 |  | IC50 [2]: 146 nM
2.62 | 194 nM | Nc1ncnc(Oc2ccc(NC(=O)C3(C(=O)Nc4ccc(F)cc4)CC3)cc2F)c1/C=N/O | 260 nM | 
3.52 | > 1000 nM | CNc1ncnc(Oc2ccc(NC(=O)C3(C(=O)Nc4ccc(F)cc4)CC3)cc2F)c1/C=N/OC |  | IC50 [3]: > 10000 nM; IC50 [4]: > 10000 nM
4.45 | 566 nM | Nc1ncnc(Oc2ccc(NC(=O)C3(C(=O)Nc4ccc(F)cc4)CC3)cc2F)c1/C=N/OCc1ccccc1 |  | 
3.23 | 89 nM | CN(C)CCCO/N=C/c1c(N)ncnc1Oc1ccc(NC(=O)C2(C(=O)Nc3ccc(F)cc3)CC2)cc1F | 110 nM | 
3.7 | 321 nM | CC(C)(C)OC(=O)N/N=C/c1c(N)ncnc1Oc1ccc(NC(=O)C2(C(=O)Nc3ccc(F)cc3)CC2)cc1F |  | 
3.04 | 166 nM | CO/N=C/c1c(N)ncnc1Oc1ccc(NC(=O)C2(C(=O)Nc3ccc(F)cc3)CC2)cc1F | 320 nM | 
